# Experimental data from US8119643B2, “Benzoimidazolyl-pyrazine compounds for inflammation and immune-related uses” (Synta Pharmaceuticals Corp., priority 2006, dated 2012).
# Test system: IL-2 production
# Test: Inhibition of IL-2 production in PHA-activated Jurkat cells (ELISA)
# Format: cell-based
# Settings: Homo sapiens, PHA 2.5 μg/mL, 20 hours, IL-2 ELISA
# Experimental: Jurkat cells were placed in a 96 well plate (0.5 million cells per well in 1% FBS medium) then a test compound of this invention was added at different concentrations. After 10 minutes, the cells were activated with PHA (final concentration 2.5 μg/mL) and incubated for 20 hours at 37° C. under CO2. The final volume was 200 μL. Following incubation, the cells were centrifuged and the supernatants were collected and stored at −70° C. prior to assaying for IL-2 production. A commercial ELISA kit (IL-2 Eli-pair, Diaclone Research, Besancon, France) was used to detect production of IL-2, from which dose response curves were obtained. The IC50 value was calculated as the concentration at which 50% of maximum IL-2 production after stimulation was inhibited versus a non-stimulation control.
row,IC50,SMILES
1,79 nM,"COc1ccc2c(c1)nc(C(F)(F)F)n2-c1cnc(NC(=O)c2ccncc2F)cn1 [Compound 3, 3-Fluoro-N-[5-(5-methoxy-2-trifluoromethyl-benzoimidazol-1-yl)-pyrazin-2-yl]-isonicotinamide]"
2,20 nM,"COc1ccc2c(c1)nc(C(F)(F)F)n2-c1cnc(NC(=O)c2ccccc2F)cn1 [Compound 5, 2-Fluoro-N-[5-(5-methoxy-2-trifluoromethyl-benzoimidazol-1-yl)-pyrazin-2-yl]-benzamide]"
3,33 nM,"COc1ccc2c(c1)nc(C(F)(F)F)n2-c1cnc(NC(=O)c2ccc(F)cc2F)cn1 [Compound 7, 2,4-Difluoro-N-[5-(5-methoxy-2-trifluoromethyl-benzoimidazol-1-yl)-pyrazin-2-yl]-benzamide]"
4,55 nM,"COc1ccc2c(c1)nc(C(F)(F)F)n2-c1cnc(NC(=O)c2ccc(Cl)cc2F)cn1 [Compound 9, 4-Chloro-2-fluoro-N-[5-(5-methoxy-2-trifluoromethyl-benzoimidazol-1-yl)-pyrazin-2-yl]-benzamide]"
5,29 nM,"COC(=O)c1ccc2c(c1)nc(C(F)(F)F)n2-c1cnc(NC(=O)c2c(F)cccc2F)cn1 [Compound 25, 1-[5-(2,6-Difluoro-benzoylamino)-pyrazin-2-yl]-2-trifluoromethyl-1H-benzoimidazole-5-carboxylic acid methyl ester]"
6,112 nM,"COC(=O)c1ccc2c(c1)nc(C(F)(F)F)n2-c1cnc(NC(=O)c2ccncc2C)cn1 [Compound 28, 1-{5-[(3-Methyl-pyridine-4-carbonyl)-amino]-pyrazin-2-yl}-2-trifluoromethyl-1H-benzoimidazole-5-carboxylic acid methyl ester]"
7,103 nM,"COc1ccc2c(c1)nc(C(F)(F)F)n2-c1cnc(NCc2c(F)cccc2F)cn1 [Compound 37, (2,6-Difluoro-benzyl)-[5-(5-methoxy-2-trifluoromethyl-benzoimidazol-1-yl)-pyrazin-2-yl]-amine]"
8,396 nM,"COc1ccc2c(c1)nc(C(F)(F)F)n2-c1cnc(NCc2ccccc2F)cn1 [Compound 41, (2-Fluoro-benzyl)-[5-(5-methoxy-2-trifluoromethyl-benzoimidazol-1-yl)-pyrazin-2-yl]-amine]"
9,> 1000 nM,"COc1ccc2c(c1)nc(C(F)(F)F)n2-c1cnc(NCc2ccccc2C)cn1 [Compound 46, [5-(5-Methoxy-2-trifluoromethyl-benzoimidazol-1-yl)-pyrazin-2-yl]-(2-methyl-benzyl)-amine]"
10,> 1000 nM,"COc1ccc2c(c1)nc(C(F)(F)F)n2-c1cnc(NCC2CCCCC2)cn1 [Compound 73, Cyclohexylmethyl-[5-(5-methoxy-2-trifluoromethyl-benzoimidazol-1-yl)-pyrazin-2-yl]-amine]"
11,37 nM,"COc1ccc2c(c1)nc(C(F)(F)F)n2-c1cnc(NC(=O)c2ccccc2Br)cn1 [Compound 85, 2-Bromo-N-[5-(5-methoxy-2-trifluoromethyl-benzoimidazol-1-yl)-pyrazin-2-yl]-benzamide]"
12,150 nM,"COc1ccc2c(c1)nc(C(F)(F)F)n2-c1cnc(NC(=O)c2ccc(F)cc2)cn1 [Compound 86, 4-Fluoro-N-[5-(5-methoxy-2-trifluoromethyl-benzoimidazol-1-yl)-pyrazin-2-yl]-benzamide]"
13,> 1000 nM,"COc1ccc2c(c1)nc(C(F)(F)F)n2-c1cnc(NCc2ccccc2Cl)cn1 [Compound 87, (2-Chloro-benzyl)-[5-(5-methoxy-2-trifluoromethyl-benzoimidazol-1-yl)-pyrazin-2-yl]-amine]"
14,101 nM,"COc1ccc2c(c1)nc(C(F)(F)F)n2-c1cnc(NC(=O)c2cccc(F)c2)cn1 [Compound 88, 3-Fluoro-N-[5-(5-methoxy-2-trifluoromethyl-benzoimidazol-1-yl)-pyrazin-2-yl]-benzamide]"
15,> 1000 nM,"COc1ccc2c(c1)nc(C(F)(F)F)n2-c1cnc(NCc2ccc(F)cc2)cn1 [Compound 89, (4-Fluoro-benzyl)-[5-(5-methoxy-2-trifluoromethyl-benzoimidazol-1-yl)-pyrazin-2-yl]-amine]"
